Data reported in article PMC9756784 (Journal of Mass Spectrometry and Advances in the Clinical …, 2022).
Where two headings read alike, the source gives them in different places.

What was measured:
[1] = for Relative stability in whole blood and plasma: whole blood versus plasma; for Length of time for which stability is assumed: whole blood
[2] = plasma
[3] = assay type: physicochemical; details: −80 °C

Cc1nnc(SCC2=C(C(=O)O)N3C(=O)[C@@H](NC(=O)Cn4cnnn4)[C@H]3SC2)s1 [Cefazolin, cefazolin]
Relative stability in whole blood and plasma [1]: stable in both matrices
Length of time for which stability is assumed ([1]; 4°C): 48h 4 °C
Length of time for which stability is assumed ([1]; RT (room temperature)): 24h RT
Length of time for which stability is assumed ([2]; 4°C): 48h 4 °C
Length of time for which stability is assumed ([2]; RT (room temperature)): 24h RT
Length of time for which stability is assumed ([2]; −20°C, W = week): 2W−20 °C
Length of time for which stability is assumed ([2]; −80°C, M = month): 8M−80 °C

CO/N=C(\C(=O)N[C@@H]1C(=O)N2C(C(=O)[O-])=C(C[N+]3(C)CCCC3)CS[C@H]12)c1csc(N)n1 [Cefepime, cefepime]
Length of time for which stability is assumed ([1]; 4°C): 48h 4 °C
Length of time for which stability is assumed ([1]; RT (room temperature)): 24h RT
Length of time for which stability is assumed ([2]; 4°C): 8h 4 °C
Length of time for which stability is assumed ([2]; RT (room temperature)): 5h RT
Length of time for which stability is assumed ([2]; −20°C, W = week): 1W−20 °C
Length of time for which stability is assumed ([2]; −80°C, M = month): 8M−80 °C

CCN1CCN(C(=O)N[C@@H](C(=O)N[C@@H]2C(=O)N3[C@@H]2SC(C)(C)[C@@H]3C(=O)O)c2ccccc2)C(=O)C1=O [Piperacillin, piperacillin]
Length of time for which stability is assumed ([1]; 4°C): 48h 4 °C
Length of time for which stability is assumed ([1]; RT (room temperature)): 24h RT
Length of time for which stability is assumed ([2]; 4°C): 24h 4 °C
Length of time for which stability is assumed ([2]; RT (room temperature)): 5h RT
Length of time for which stability is assumed ([2]; −20°C, W = week): 1W−20 °C

CC(=O)NC[C@H]1CN(c2ccc(N3CCOCC3)c(F)c2)C(=O)O1 [Linezolid, linezolid]
Stock solution stable for up to [3]: 20 months
Relative stability in whole blood and plasma [1]: stable in both matrices
Length of time for which stability is assumed ([1]; 4°C): 48h 4 °C
Length of time for which stability is assumed ([1]; RT (room temperature)): 24h RT
Length of time for which stability is assumed ([2]; 4°C): 48h 4 °C
Length of time for which stability is assumed ([2]; RT (room temperature)): 24h RT
Length of time for which stability is assumed ([2]; −20°C, W = week): 2W−20 °C
Length of time for which stability is assumed ([2]; −80°C, M = month): 8M−80 °C

Cc1onc(-c2c(F)cccc2Cl)c1C(=O)N[C@@H]1C(=O)N2[C@@H]1SC(C)(C)[C@@H]2C(=O)O [Flucloxacillin, flucloxacillin]
Relative stability in whole blood and plasma [1]: more stable in plasma
Length of time for which stability is assumed ([1]; 4°C): 8h 4 °C
Length of time for which stability is assumed ([1]; RT (room temperature)): 8h RT
Length of time for which stability is assumed ([2]; 4°C): 24h 4 °C
Length of time for which stability is assumed ([2]; RT (room temperature)): 8h RT
Length of time for which stability is assumed ([2]; −20°C, W = week): 2W−20 °C
Length of time for which stability is assumed ([2]; −80°C, M = month): 8M−80 °C

CC(C)(O/N=C(\C(=O)N[C@@H]1C(=O)N2C(C(=O)[O-])=C(C[n+]3ccccc3)CS[C@H]12)c1csc(N)n1)C(=O)O [Ceftazidime, ceftazidime]
Length of time for which stability is assumed ([2]; 4°C): 8h 4 °C

C[C@@H](O)[C@H]1C(=O)N2C(C(=O)O)=C(S[C@@H]3CN[C@H](C(=O)N(C)C)C3)[C@H](C)[C@H]12 [Meropenem, meropenem]
Relative stability in whole blood and plasma [1]: more stable in whole blood than in plasma
Length of time for which stability is assumed ([1]; 4°C): 48h 4 °C
Length of time for which stability is assumed ([1]; RT (room temperature)): 8h RT
Length of time for which stability is assumed ([2]; 4°C): 24h 4 °C
Length of time for which stability is assumed ([2]; RT (room temperature)): 8h RT
Length of time for which stability is assumed ([2]; −20°C, W = week): 1W−20 °C
Length of time for which stability is assumed ([2]; −80°C, M = month): 8M−80 °C

CO/N=C(\C(=O)N[C@@H]1C(=O)N2C(C(=O)O)=C(COC(C)=O)CS[C@H]12)c1csc(N)n1 [Cefotaxime, cefotaxime]
Length of time for which stability is assumed ([1]; 4°C): 48h 4 °C
Length of time for which stability is assumed ([1]; RT (room temperature)): 24h RT
Length of time for which stability is assumed ([2]; 4°C): 48h 4 °C
Length of time for which stability is assumed ([2]; RT (room temperature)): 8h RT
Length of time for which stability is assumed ([2]; −80°C, M = month): 8M−80 °C

C[C@]1(Cn2ccnn2)[C@H](C(=O)O)N2C(=O)C[C@H]2S1(=O)=O [Tazobactam, tazobactam]
Relative stability in whole blood and plasma [1]: more stable in whole blood than in plasma
Length of time for which stability is assumed ([1]; 4°C): 48h 4 °C
Length of time for which stability is assumed ([1]; RT (room temperature)): 24h RT
Length of time for which stability is assumed ([2]; 4°C): 24h 4 °C
Length of time for which stability is assumed ([2]; RT (room temperature)): 8h RT
Length of time for which stability is assumed ([2]; −20°C, W = week): 1W−20 °C
